Data taken from ChEMBL document CHEMBL1140773, “Discovery of amide and heteroaryl isosteres as carbamate replacements in a series of orally active gamma-secretase inhibitors” (Bioorg Med Chem Lett, 2008).

test: in vivo; conditions: rat, plasma, po, 10 mg/kg

Row | SMILES | AUC(0-t) at 6 h [ng·h/mL]
1 | O=C(CC1([C@H]2CCC[C@@H](C3CC3)N2S(=O)(=O)c2ccc(Cl)cc2)CC1)N1CC2CCC(C1)N2CCO (mixture of isomers) | 5810
2 | CC[C@@H]1CCC[C@H](C2(CC(=O)N3CC4CCC(C3)N4CCO)CC2)N1S(=O)(=O)c1ccc(Cl)cc1 (mixture of isomers) | 3220
3 | CC(C)(CO)N1CCN(C(=O)CC2([C@H]3CCC[C@@H](C4CC4)N3S(=O)(=O)c3ccc(Cl)cc3)CC2)CC1 (racemic) | 1350
4 | CC[C@@H]1CCC[C@H](C2(CC(=O)N3CCC(N4CCCCC4)CC3)CC2)N1S(=O)(=O)c1ccc(Cl)cc1 (racemic) | 93
5 | O=C(CC1([C@H]2CCC[C@@H](C3CC3)N2S(=O)(=O)c2ccc(Cl)cc2)CC1)N1CCN2CCCC[C@H]2C1 (racemic) | 673

Continued, values first:

Row | AUC(0-t) at 6 h [ng·h/mL] | SMILES
6 | 2650 | CC[C@@H]1CCC[C@H](C2(CC(=O)N3CC4CCC(C3)N4C)CC2)N1S(=O)(=O)c1ccc(Cl)cc1 (mixture of isomers)
7 | 973 | CC[C@@H]1CCC[C@H](C2(Cc3nc(CN(C)C(C)(C)CO)no3)CC2)N1S(=O)(=O)c1ccc(Cl)cc1 (racemic)
8 | 26 | CC[C@@H]1CCC[C@H](C2(Cc3nc(CN4CCCC4)no3)CC2)N1S(=O)(=O)c1ccc(Cl)cc1 (racemic)
9 | 419 | CC[C@@H]1CCC[C@H](C2(CC(=O)N3CCN4CCCC[C@H]4C3)CC2)N1S(=O)(=O)c1ccc(Cl)cc1 (racemic)
10 | 143 | CN(Cc1noc(CC2([C@H]3CCC[C@@H](C4CC4)N3S(=O)(=O)c3ccc(Cl)cc3)CC2)n1)C(C)(C)CO (racemic)
11 | 1620 | CC[C@@H]1CCC[C@H](C2(CC(=O)N3CCN(C(C)(C)CO)CC3)CC2)N1S(=O)(=O)c1ccc(Cl)cc1 (racemic)
